Here are results for 30 compounds from patent US6610689B2, “HIV protease inhibitors based on amino acid derivatives” (priority 2001, dated 2003).

The assay has as its target T1, HIV protease (Human immunodeficiency virus type 1 group M subtype B, UniProt P04585).
T1 construct: A third viral enzyme known as protease then cleaves the polyproteins
The assay is described as follows: Enzymatic Assay for Determining the Inhibition Constant (Ki) of Synthetic Compounds Targeting the HIV Protease (fluorometric FRET assay). It is filed as biochemical. In outline: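 Fluorometric FRET assay following protease cleavage of an EDANS/DABCYL-labelled substrate. Initial velocities without (Vo) and with inhibitor (Vi) measured; Ki derived from the Henderson equation using inhibitor and substrate concentrations and Km.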
Regarding `CN[C@@H](Cc1ccccc1)C(=O)NCCCC[C@@H](C(=O)O)N(CC(C)C)S(=O)(=O)c1ccc(C)cc1` [Example 88, Nα-Isobutyl-Nα-(4-methylbenzenesulfonyl)-Nε-(N′α-methyl-L-phenylalanyl)-L-lysine], affinity was put at a Ki of 2.1 nM.

`CC(=O)N[C@@H](Cc1ccccc1)C(=O)NCCCC[C@@H](CO)N(CC(C)C)S(=O)(=O)c1ccc(C)cc1` [Example 118, (2S,2′S) 2-N-Isobutyl-2-N-(4-methylbenzenesulfonyl)-6-N-(N′α-acetyl-S-phenylalanyl)-2,6-diaminohexanol] registered a Ki of 13 nM. Regarding `Cc1ccc(S(=O)(=O)NC(Cc2c[nH]c3ccccc23)C(=O)NCCCCC(C(=O)OCC(O)CO)N(CC(C)C)S(=O)(=O)c2ccc(C)cc2)cc1` [Example 45, Nα-Isobutyl-Nα-(4-methylbenzenesulfonyl)-Nε-[N′α-(4-methylbenzenesulfonyl)-L-tryptophanyl]-L-lysine 2,3-Dihydroxypropyl Ester], the Ki is over 300 nM. As for `COC(=O)N[C@@H](Cc1ccccc1)C(=O)NCCCC[C@@H](CO)N(CC(C)C)S(=O)(=O)c1ccc(N)cc1` [Example 177, (2S,2′S) 2-N-(4-Aminobenzenesulfonyl)-2-N-isobutyl-6-N-(N′α-methoxycarbonyl-S-phenylalanyl)-2,6-diaminohexanol], the affinity corresponds to a Ki of 6.6 nM. On to `CC(=O)Nc1ccc(S(=O)(=O)N[C@@H](Cc2ccccc2)C(=O)NCCCC[C@@H](CO)N(CC(C)C)S(=O)(=O)c2ccc(C)cc2)cc1` [Example 121, (2S,2′S) 2-N-Isobutyl-2-N-(4-methylbenzenesulfonyl)-6-N-[N′α-(4-acetylaminobenzenesulfonyl)-S-phenylalanyl]-2,6-diaminohexanol], for which the affinity corresponds to a Ki of 23 nM. The compound `COC(=O)[C@H](CCCCNC(=S)[C@H](Cc1ccccc1)NC(=S)c1ccccc1)N(CC(C)C)S(=O)(=O)c1ccc(C)cc1` [Example 76, Nα-Isobutyl-Nα-(4-methylbenzenesulfonyl)-Nε-(N′α-thiobenzoyl-L-thiophenylalanyl)-L-lysine Methyl Ester] registered a Ki of over 300 nM. `COC(=O)[C@H](CCCCNC(=O)[C@H](Cc1ccccc1)NC(=O)c1ccccc1)N(CC(C)C)S(=O)(=O)c1ccc(C)cc1` [Example 70, Nα-Isobutyl-Nα-(4-methylbenzenesulfonyl)-Nε-(N′α-benzoyl-L-phenylalanyl)-L-lysine Methyl Ester]: the inhibitory constant (Ki) is over 300 nM. `Cc1ccc(S(=O)(=O)N(CC(C)C)[C@@H](CCCCNC(=S)[C@H](Cc2ccccc2)NC(=S)c2ccccc2)C(=O)O)cc1` [Example 77, Nα-Isobutyl-Nα-(4-methylbenzenesulfonyl)-Nε-(N′α-thiobenzoyl-L-thiophenylalanyl)-L-lysine] had an inhibition constant Ki of 212 nM. That is a sub-micromolar value. As to `Cc1ccc(S(=O)(=O)N[C@@H](Cc2c[nH]c3ccccc23)C(=S)NCCCC[C@@H](CO)N(CC(C)C)S(=O)(=O)c2ccc(C)cc2)cc1` [Example 102], the inhibitory constant (Ki) amounted to 51 nM. As to `Cc1ccc(S(=O)(=O)N(CC(C)C)[C@@H](CCCCNC(=O)[C@H](Cc2ccccc2)NC(=O)N2CCOCC2)C(=O)O)cc1` [Example 51, Nα-Isobutyl-Nα-(4-methylbenzenesulfonyl)-Nε-[N′α-(4-morpholinecarbonyl)-L-phenylalanyl]-L-lysine], the affinity, expressed as Ki, was 0.9 nM. On to `CC(C)CN([C@H](CO)CCCCNC(=O)[C@H](Cc1ccccc1)NS(=O)(=O)c1ccc(N)cc1)S(=O)(=O)c1ccc(N)cc1` [Example 195, (2S,2′S) 2-N-(4-Aminobenzenesulfonyl)-2-N-isobutyl-6-N-[N′α-(4-aminobenzenesulfonyl)-S-phenylalanyl]-2,6-diaminohexanol], for which affinity was put at a Ki of 20 nM. Compared with the last compound, the Ki is about 22-fold higher. To `Cc1ccc(S(=O)(=O)N(CC(C)C)[C@@H](CCCCNC(=O)[C@H](Cc2ccccc2)NS(=O)(=O)c2ccc3ccccc3c2)C(=O)O)cc1` [Example 19, Nα-Isobutyl-Nα-(4-methylbenzenesulfonyl)-Nε-[N′α-(2-naphthylsulfonyl)-L-phenylalanyl]-L-lysine] belongs 11 nM; to `Cc1ccc(S(=O)(=O)N(CC(C)C)[C@H](CO)CCCCNC(=O)[C@H](Cc2ccccc2)NS(=O)(=O)c2ccc(C(F)(F)F)cc2)cc1` [Example 127, (2S,2′S) 2-N-Isobutyl-2-N-(4-methylbenzenesulfonyl)-6-N-[N′α-(4-trifluoromethylbenzenesulfonyl)-S-phenylalanyl]-2,6-diaminohexanol], 164 nM; to `CC(=O)N[C@@H](Cc1c[nH]c2ccccc12)C(=O)NCCCC[C@@H](CO)N(CC(C)C)S(=O)(=O)c1ccc(C)cc1` [Example 131, (2S,2′S) 2-N-Isobutyl-2-N-(4-methylbenzenesulfonyl)-6-N-(N′α-acetyl-S-tryptophanyl)-2,6-diaminohexanol], 3 nM. In the case of `COc1ccc(S(=O)(=O)N(CC(C)C)[C@H](CO)CCCCNC(=O)[C@H](Cc2c[nH]c3ccccc23)NC(C)=O)cc1` [Example 172, (2S,2′S) 2-N-Isobutyl-2-N-(4-methoxybenzenesulfonyl)-6-N-(N′α-acetyl-S-tryptophanyl)-2,6-diaminohexanol], the inhibition constant (Ki) was over 300 nM.

As to `Cc1ccc(S(=O)(=O)N[C@@H](Cc2cc3ccccc3s2)C(=O)NCCCC[C@@H](C(=O)O)N(CC(C)C)S(=O)(=O)c2ccc(C)cc2)cc1` [Example 42, Nα-Isobutyl-Nα-(4-methylbenzenesulfonyl)-Nε-[N′α-(4-methylbenzenesulfonyl)-L-3-(2-thianaphthyl)-alanyl]-L-lysine], affinity was put at a Ki of 256 nM. In turn, `Cc1ccc(S(=O)(=O)N(CC(C)C)[C@H](CO)CCCCNC(=O)[C@H](Cc2ccccc2)NC(=O)c2ccccc2)cc1` [Example 95, (2S,2′S) 2-N-Isobutyl-2-N-(4-methylbenzenesulfonyl)-6-N-(N′α-benzoyl-S-phenylalanyl)-2,6-diaminohexanol] came in with a Ki of 54 nM. Regarding `CCCC[C@H](NS(=O)(=O)c1ccccc1)C(=O)NCCCC[C@@H](C(=O)O)N(CC(C)C)S(=O)(=O)c1ccc(C)cc1` [Example 15, Nα-Isobutyl-Nα-(4-methylbenzenesulfonyl)-Nε-[N′α-(benzenesulfonyl)-L-norleucyl]-L-lysine], the affinity corresponds to a Ki of 34 nM.

In turn, `CC(=O)N[C@@H](Cc1ccccc1)C(=O)NCCCC[C@@H](C(=O)O)N(CC(C)C)S(=O)(=O)c1ccc(C)cc1` [Example 30, Nα-Isobutyl-Nα-(4-methylbenzenesulfonyl)-Nε-(N′α-acetyl-L-phenylalanyl)-L-lysine] yielded a Ki of 0.483 nM. This Ki lies about 70-fold lower than the previous one. In turn, `Cc1ccc(S(=O)(=O)N[C@@H](Cc2ccccc2)C(=S)NCCCC[C@@H](C(=O)O)N(CC(C)C)S(=O)(=O)c2ccc(C)cc2)cc1` [Example 72, Nα-Isobutyl-Nα-(4-methylbenzenesulfonyl)-Nε-[N′α-(4-methylbenzenesulfonyl)-L-thiophenylalanyl]-L-lysine] registered a Ki of 33 nM. On to `Cc1ccc(S(=O)(=O)N(CC(C)C)[C@H](CO)CCCCNC(=O)[C@H](Cc2ccc(F)cc2)NC(=O)OC(C)(C)C)cc1` [Example 140, (2S,2′S) 2-N-Isobutyl-2-N-(4-methylbenzenesulfonyl)-6-N-(N′α-tert-butoxycarbonyl-S-4-fluorophenylalanyl)-2,6-diaminohexanol], for which affinity was put at a Ki of 4.2 nM. On to `Cc1ccc(S(=O)(=O)N(CC(C)C)[C@H](CO)CCCCNC(=O)[C@H](Cc2ccccc2)NS(=O)(=O)c2ccccc2)cc1` [Example 123, (2S,2′S) 2-N-Isobutyl-2-N-(4-methylbenzenesulfonyl)-6-N-(N′α-benzenesulfonyl-S-phenylalanyl)-2,6-diaminohexanol], for which the affinity corresponds to a Ki of 14 nM. Compared with the last compound, the Ki is about 3.3-fold higher.

In turn, `Cc1ccc(S(=O)(=O)N(CC(C)C)[C@@H](CCCCNC(=O)[C@@H](NC(=O)OC(C)(C)C)[C@@H](C)OCc2ccccc2)C(=O)O)cc1` [Example 84, Nα-Isobutyl-Nα-(4-methylbenzenesulfonyl)-Nε-(N′α-tert-butoxyearbonyl-O-benzyl-L-threonyl)-L-lysine] returned an inhibition constant Ki of 163 nM. To `Cc1ccc(S(=O)(=O)N(CC(C)C)[C@@H](CCCCNC(=O)[C@H](Cc2c[nH]c3ccccc23)NC(=O)CCc2ccccc2)C(=O)O)cc1` [Example 133, Nα-Isobutyl-Nα-(4-methylbenzenesulfonyl)-Nε-(N′α-dihydrocinnamoyl-L-tryptophanyl)-L-lysine] belongs 0.606 nM. `Cc1ccc(S(=O)(=O)N(CC(C)C)[C@@H](CCCCNC(=O)[C@@H](N)Cc2ccc(OCc3ccccc3)cc2)C(=O)O)cc1` [Example 94, Nα-Isobutyl-Nα-(4-methylbenzenesulfonyl)-Nε-(O-benzyl-L-tyrosyl)-L-lysine] registered a Ki of 177 nM. To `Cc1ccc(S(=O)(=O)N(CC(C)C)[C@H](CO)CCCCNC(=O)[C@H](Cc2ccccc2)NC(=O)N2CCOCC2)cc1` [Example 120, (2S,2′S) 2-N-Isobutyl-2-N-(4-methylbenzenesulfonyl)-6-N-[N′α-(4-morpholinecarbonyl)-S-phenylalanyl]-2,6-diaminohexanol] belongs 2.4 nM; to `Cc1ccc(S(=O)(=O)N(CC(C)C)[C@@H](CCCCNC(=O)[C@H](Cc2ccccc2)N(C)C(=O)OC(C)(C)C)C(=O)O)cc1` [Example 81, Nα-Isobutyl-Nα-(4-methylbenzenesulfonyl)-Nε-(N′α-tert-butoxycarbonyl-N′α-methyl-L-phenylalanyl)-L-lysine], 3.8 nM.

Compound `CSCC[C@H](NC(=O)OC(C)(C)C)C(=O)NCCCC[C@@H](C(=O)O)N(CC(C)C)S(=O)(=O)c1ccc(C)cc1` [Example 82, Nα-Isobutyl-Nα-(4-methylbenzenesulfonyl)-Nε-(N′α-tert-butoxycarbonyl-L-methionyl)-L-lysine] returned a Ki of 65 nM. This Ki is about 17-fold higher than that of the compound before. Regarding `Cc1ccc(S(=O)(=O)N(CC(C)C)[C@@H](CCCCNC(=O)[C@H](Cc2ccccc2)NC(=O)OCc2ccccc2)C(=O)O)cc1` [Example 31, Nα-Isobutyl-Nα-(4-methylbenzenesulfonyl)-Nε-(N′α-benzyloxycarbonyl-L-phenylalanyl)-L-lysine], affinity was put at a Ki of 2.3 nM. The compound `CC(C)CN([C@H](CO)CCCCNC(=O)[C@H](Cc1c[nH]c2ccccc12)NS(=O)(=O)c1ccc([N+](=O)[O-])cc1)S(=O)(=O)c1ccc(N)cc1` [Example 179, (2S,2′S) 2-N-(4-Aminobenzenesulfonyl)-2-N-isobutyl-6-N-[N′α-(4-nitrobenzenesulfonyl)-S-tryptophanyl]-2,6-diaminohexanol] showed an inhibition constant (Ki) of 32 nM. This Ki lies about 14-fold higher than the previous one.
